The source made the active and inactive calls.
What was measured:
[1] = molecular target: T1, Heat shock factor protein 1 (Mus musculus, UniProt P38532); test: decrease of HSF1-responsive luciferase luminescence – cell-based, NIH3T3, dose retest, confirmation (AID 2382); type: functional;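 note: NIH3T3 fibroblasts with HSF1-driven luciferase reporter stressed by proteasome inhibitor MG132; luminescence from HSF1-driven luciferase expression after 8 hours of MG132 stress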
T1 sequence (P38532 whole entry): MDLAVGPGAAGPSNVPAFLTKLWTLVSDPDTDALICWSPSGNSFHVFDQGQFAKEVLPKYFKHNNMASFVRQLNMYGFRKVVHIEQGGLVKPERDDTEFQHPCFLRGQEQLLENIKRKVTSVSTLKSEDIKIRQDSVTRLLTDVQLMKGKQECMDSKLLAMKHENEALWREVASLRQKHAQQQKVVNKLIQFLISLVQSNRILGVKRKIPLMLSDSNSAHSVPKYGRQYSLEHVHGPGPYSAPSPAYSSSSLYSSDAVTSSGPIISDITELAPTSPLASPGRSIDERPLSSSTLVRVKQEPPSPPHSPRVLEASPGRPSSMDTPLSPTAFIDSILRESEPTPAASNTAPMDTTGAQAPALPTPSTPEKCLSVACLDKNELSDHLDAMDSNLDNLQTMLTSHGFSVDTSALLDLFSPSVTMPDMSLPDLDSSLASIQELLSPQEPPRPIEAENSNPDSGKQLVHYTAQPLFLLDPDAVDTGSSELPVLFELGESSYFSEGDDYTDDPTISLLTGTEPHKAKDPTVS

[2] = molecular target: Glucose-6-phosphate 1-dehydrogenase (Homo sapiens, UniProt P11413); test: inhibition of Homo sapiens G6PD, dose series – biochemical, fluorescence, selectivity assay for P. falciparum G6PD inhibitor project, dose response (AID 504792); type: functional
[3] = molecular target: T2, E3 ubiquitin-protein ligase XIAP (Homo sapiens, UniProt P98170); test: Counter Screen using XIAP-Bir3 for Chemical Antagonists of Bir1/2 domains of IAP-family anti-apoptotic proteins. [Related pubchem assays (depositor defined):AID1018, AID1449, AID1514, AID1638, AID1749, AID1750, AID488957, AID488963]
[4] = molecular target: T2, E3 ubiquitin-protein ligase XIAP; test: small molecules displacing peptide from XIAP – biochemical, IAP family, fluorescence polarization (AID 1018); type: functional
[5] = molecular target: T3, Mannose-6-phosphate isomerase (Homo sapiens, UniProt P34949); test: MPI enzyme activity inhibition – biochemical, fluorescence intensity, coupled assay, primary screen (AID 1209)
T3 sequence (P34949 whole entry): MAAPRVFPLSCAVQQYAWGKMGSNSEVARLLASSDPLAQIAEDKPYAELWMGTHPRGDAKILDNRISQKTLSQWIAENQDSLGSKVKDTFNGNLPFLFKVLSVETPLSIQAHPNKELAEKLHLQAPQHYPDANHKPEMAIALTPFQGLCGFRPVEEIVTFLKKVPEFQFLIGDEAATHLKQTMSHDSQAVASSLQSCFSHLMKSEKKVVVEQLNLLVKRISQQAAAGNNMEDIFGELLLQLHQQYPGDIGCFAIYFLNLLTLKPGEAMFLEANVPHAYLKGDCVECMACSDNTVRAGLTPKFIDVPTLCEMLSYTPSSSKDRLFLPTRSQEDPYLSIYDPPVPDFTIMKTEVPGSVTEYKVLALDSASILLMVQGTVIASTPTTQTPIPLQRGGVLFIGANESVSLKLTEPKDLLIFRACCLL

[6] = molecular target: T3, Mannose-6-phosphate isomerase; test: MPI inhibition at elevated mannose 6-phosphate – biochemical, fluorescence intensity, high mannose 6-phosphate, primary screen (AID 1220)
[7] = molecular target: Eukaryotic translation initiation factor 4E (Mus musculus, UniProt P63073); test: blockers of eIF4G binding by eIF4E – biochemical, TR-FRET, dose response (AID 855); type: functional;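 note: potency for disrupting eIF4E binding to eIF4GI seen as loss of FRET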
[8] = HPDE-C7 pancreatic duct cell viability loss – fluorescence, HTS (AID 430); type: functional, cell-based; settings: Homo sapiens
[9] = viability loss of HPDE-C7K cells – cell-based, fluorescence, HTS, primary screen (AID 431); type: functional; settings: Homo sapiens
[10] = Luminescence Cell-Based Dose Confirmation HTS to Identify Activators of 5'UTR Stem-Loop Driven Alpha-Synuclein mRNA Translation in H4 Neuroglioblastoma Cells. [Related pubchem assays: 1829 (Project Summary), 1814 (Primary HTS)]; type: functional
[11] = Luminescence Cell-Based Dose Response HTS to Identify Activators of Luciferase Translation or Activity in H4 […] Cells. [Related pubchem assays: 1829 (Project Summary), 1814 (Primary HTS)]; type: functional
H4 = test: Luminescence Cell-Based Dose Response HTS to Identify Activators of 5'UTR Stem-Loop Driven Prion Protein mRNA Translation in H4 Neuroglioblastoma Cells. [Related pubchem assays: 1829 (Project Summary), 1814 (Primary HTS)]; type: functional; settings: Homo sapiens
[12] = HEK-293T viability loss after treatment – luminescence, T-cell screen hits, cytotoxicity control for TCR NF-kB inhibitor project, dose response (AID 489026); type: functional, cell-based;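 note: cells exposed to compound about 14 hours before the viability readout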
INS1 = test: INS-1E survival protection against cytokine death – cell-based, luminescence, retest, dose response (AID 449756); type: functional; settings: Rattus norvegicus;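 note: cell death triggered by IL-1 beta plus TNF-alpha plus IFN-gamma mixture; protective hits raise ATP signal compared with cytokine alone wells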
[13] = molecular target: G-protein coupled receptor 55 (Homo sapiens, UniProt Q9Y2T6); test: inhibition of LPI-stimulated GPR55 beta-arrestin translocation – imaging, U2OS, beta-arrestin-GFP, LPI agonist, primary screen (AID 2013); type: functional;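 note: antagonist potency measured as reduced agonist-driven arrestin aggregation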
H9c2 = test: cells; type: functional, cell-based; settings: Rattus norvegicus, H9c2, Myocardium;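 note: confirmatory concentration-response retest of ultra-high-throughput screening hits for modulation of myocardial damage; cell death induced by hydrogen peroxide oxidative stress; compound pretreatment for 60 min then peroxide exposure for 2 h; potency is for protecting the cells against peroxide damage rather than for killing them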
Protein skinhead-1 = molecular target: T4, Protein skinhead-1 (Caenorhabditis elegans, UniProt P34707); type: functional
T4 sequence (P34707 whole entry): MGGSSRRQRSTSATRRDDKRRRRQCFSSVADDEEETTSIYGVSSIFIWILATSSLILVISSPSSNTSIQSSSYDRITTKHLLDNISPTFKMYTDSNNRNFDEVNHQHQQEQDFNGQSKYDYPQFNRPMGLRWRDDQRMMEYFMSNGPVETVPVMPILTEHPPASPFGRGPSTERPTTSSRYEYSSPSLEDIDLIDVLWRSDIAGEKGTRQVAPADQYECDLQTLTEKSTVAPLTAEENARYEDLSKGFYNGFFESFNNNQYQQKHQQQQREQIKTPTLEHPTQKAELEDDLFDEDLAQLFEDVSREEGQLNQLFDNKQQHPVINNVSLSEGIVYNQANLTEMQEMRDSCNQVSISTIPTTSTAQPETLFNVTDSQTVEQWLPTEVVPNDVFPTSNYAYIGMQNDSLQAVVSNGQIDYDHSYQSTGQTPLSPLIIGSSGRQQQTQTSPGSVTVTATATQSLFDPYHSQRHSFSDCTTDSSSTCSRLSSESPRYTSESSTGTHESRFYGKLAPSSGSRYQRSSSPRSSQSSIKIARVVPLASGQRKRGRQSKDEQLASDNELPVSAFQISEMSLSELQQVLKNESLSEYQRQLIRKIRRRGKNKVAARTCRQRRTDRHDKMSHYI

T2 sequence (P98170 whole entry): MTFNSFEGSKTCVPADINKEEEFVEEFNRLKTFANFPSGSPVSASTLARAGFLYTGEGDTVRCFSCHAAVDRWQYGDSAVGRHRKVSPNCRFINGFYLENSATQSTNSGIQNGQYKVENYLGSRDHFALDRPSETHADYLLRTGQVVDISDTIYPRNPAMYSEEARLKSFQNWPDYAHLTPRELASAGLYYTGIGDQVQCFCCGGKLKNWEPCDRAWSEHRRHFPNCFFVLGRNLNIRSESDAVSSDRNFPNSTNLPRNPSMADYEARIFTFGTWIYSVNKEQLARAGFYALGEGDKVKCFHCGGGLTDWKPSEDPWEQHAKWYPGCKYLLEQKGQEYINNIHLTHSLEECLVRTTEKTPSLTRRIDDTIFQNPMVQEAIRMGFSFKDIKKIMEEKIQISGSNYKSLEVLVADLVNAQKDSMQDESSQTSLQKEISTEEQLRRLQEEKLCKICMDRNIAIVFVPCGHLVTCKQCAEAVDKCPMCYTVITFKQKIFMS
Glucose-6-phosphate 1-dehydrogenase, sequence (P11413 whole entry): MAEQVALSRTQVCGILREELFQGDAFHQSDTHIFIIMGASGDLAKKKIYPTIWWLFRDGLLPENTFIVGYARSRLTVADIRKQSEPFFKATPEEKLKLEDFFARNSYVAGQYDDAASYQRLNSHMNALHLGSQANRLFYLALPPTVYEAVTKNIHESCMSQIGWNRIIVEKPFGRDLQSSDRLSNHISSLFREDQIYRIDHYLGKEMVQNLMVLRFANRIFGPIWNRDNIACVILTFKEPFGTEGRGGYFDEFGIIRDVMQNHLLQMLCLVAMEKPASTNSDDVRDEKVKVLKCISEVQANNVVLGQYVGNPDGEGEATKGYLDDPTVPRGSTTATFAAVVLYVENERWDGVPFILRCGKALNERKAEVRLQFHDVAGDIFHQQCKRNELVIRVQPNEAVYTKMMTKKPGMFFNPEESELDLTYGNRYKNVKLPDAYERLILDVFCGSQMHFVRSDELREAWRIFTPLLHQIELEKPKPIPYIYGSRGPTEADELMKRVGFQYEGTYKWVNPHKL
Eukaryotic translation initiation factor 4E, sequence (P63073 whole entry): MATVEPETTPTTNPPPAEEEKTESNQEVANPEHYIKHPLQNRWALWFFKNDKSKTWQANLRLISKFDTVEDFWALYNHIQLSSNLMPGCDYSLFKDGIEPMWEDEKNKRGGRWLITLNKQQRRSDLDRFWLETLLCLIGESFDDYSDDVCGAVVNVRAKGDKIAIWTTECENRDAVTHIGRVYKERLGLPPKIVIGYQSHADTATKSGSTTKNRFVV
G-protein coupled receptor 55, sequence (Q9Y2T6 whole entry): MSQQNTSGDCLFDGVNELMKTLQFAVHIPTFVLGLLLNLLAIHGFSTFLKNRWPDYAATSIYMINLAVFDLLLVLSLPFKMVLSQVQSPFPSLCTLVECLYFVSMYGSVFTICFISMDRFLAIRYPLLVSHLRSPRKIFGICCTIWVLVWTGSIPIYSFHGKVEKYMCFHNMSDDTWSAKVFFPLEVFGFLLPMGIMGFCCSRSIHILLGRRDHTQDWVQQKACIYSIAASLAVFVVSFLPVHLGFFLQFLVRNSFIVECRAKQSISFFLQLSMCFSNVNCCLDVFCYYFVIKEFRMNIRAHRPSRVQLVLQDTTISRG

Cn1c(-c2sccc2OCc2cccc(C(F)(F)F)c2)n[nH]c1=S
EC50 [1]: > 195 µM (not active) | IC50 [2]: > 80 µM (inactive)

CCCCOc1ccc(Cc2nnc(S)n2N)cc1
IC50 [2]: > 80 µM (inactive)

CC[n+]1c(C)sc2c(C)cc(C)cc21
IC50 [3]: > 100 µM (inactive) | IC50 [4]: > 100 µM (not active) | IC50 [5]: 10.8 µM (active) | IC50 [6]: > 50 µM (not active)

Cc1nnc(=O)[nH]c1NCc1ccco1
IC50 [7]: > 64 µM (inactive)

COc1ccc(NC(=O)c2cc(-c3cc(C)ccc3O)[nH]n2)cc1Cl
EC50 [8]: > 20 µM (not active) | EC50 [9]: > 20 µM (not active)

O=C1/C(=C/c2ccc(N3CCOCC3)o2)S/C(=N\c2ccccc2)N1CCc1c[nH]c2ccccc12
EC50 [10]: 13 µM (active) | EC50 [11]: > 120 µM (not active) | EC50 (H4): > 120 µM (not active) | IC50 [12]: > 80 µM (inactive) | AC50 (INS1): 17.2 µM (active)

Cc1[nH]c2c(Br)cccc2c1[C@H]1[C@@H](CC#N)C1(C)C
IC50 [13]: 1.49 µM (active)

O=C(NCc1nnc(S)n1-c1ccc(F)cc1)c1ccco1
IC50 [3]: > 100 µM (inactive) | IC50 [4]: > 100 µM (not active)

CCC(=O)N1CCN(c2ccc(NC(=O)c3cc4ccccc4o3)cc2Cl)CC1
EC50 [8]: 11.5 µM (active) | EC50 [9]: 10.9 µM (active) | IC50 (H9c2): 15.9 µM (active) | IC50 (Protein skinhead-1): > 100 µM (inactive)

Source: ChEMBL document CHEMBL1201862, “PubChem BioAssay data set” (2004)
